Measurements taken from patent US8916526B2, “Flavanone derivative” (National University Corporation Okayama University, priority 2009, dated 2014).
Values after ≈ are worked out from the molar mass of the structure shown.

How the values were obtained:
[1] = tested on: MRSA N315; experiment: In vitro infectivity assay (MIC), broth dilution, Exp. Ex. 1-1; assay type: cell-based, Staphylococcus aureus; settings: MRSA N315, Mueller-Hinton broth, 35° C., 24 hours; for MIC: Staphylococcus aureus, read-out: MIC MRSA N315
Protocol: (§1) The antibacterial activities were measured based on broth dilution techniques of international standards (Clinical Laboratory Standards Institute: CLSI). The activities were shown by minimum inhibitory concentrations (MICs) determined by inoculating the above-mentioned strains at a concentration of about 10^5 […] into Mueller-Hinton broth (manufactured by Difco) containing 0.85% NaCl in 96-well microplates and incubating the plates at 35° C. for 24 hours. Measurement was carried out three times.
(§2) The antibacterial activities of the compounds of the present invention against various strains such as methicillin-resistant Staphylococcus aureus (MRSA), vancomycin intermediate-resistant Staphylococcus aureus (VISA), methicillin-sensitive Staphylococcus aureus (MSSA), and vancomycin-resistant enterococci (VRE) were examined. Of the bacteria used in MIC measurement in this test example, clinical bacteria of MRSA (OM481 strain and OM584 strain) were supplied from Okayama University Hospital (Japan). An MRSA strain N315, a vancomycin intermediate-resistant Staphylococcus aureus (VISA) strain Mu50, and a methicillin-sensitive Staphylococcus aureus (MSSA) strain FDA 209P were used as controls. Vancomycin-resistant enterococcus (VRE) strains NCTC 12201 and FN-1 were supplied from the National Institute of Infectious Disease (Japan).

[2] = tested on: VISA Mu50; experiment: as above; assay type: cell-based, Staphylococcus aureus; settings: VISA Mu50, Mueller-Hinton broth, 35° C., 24 hours
Protocol: as §1, §2

[3] = tested on: MSSA FDA 209P; experiment: as above; assay type: cell-based, Staphylococcus aureus; settings: MSSA FDA 209P, Mueller-Hinton broth, 35° C., 24 hours; for MIC: Staphylococcus aureus, read-out: MIC MSS 209P
Protocol: as §1, §2

[4] = tested on: MRSA OM481; experiment: as above; assay type: cell-based, Staphylococcus aureus; settings: MRSA OM481, Mueller-Hinton broth, 35° C., 24 hours; for MIC: Staphylococcus aureus, read-out: MIC MRSA OM481
Protocol: as §1, §2

[5] = tested on: MRSA OM58; experiment: as above; assay type: cell-based, Staphylococcus aureus; settings: MRSA OM58, Mueller-Hinton broth, 35° C., 24 hours; for MIC: Staphylococcus aureus, read-out: MIC MRSA OM58
Protocol: as §1, §2

[6] = tested on: VRE NCTC12201; experiment: as above; assay type: cell-based, enterococci; settings: VRE NCTC12201, Mueller-Hinton broth, 35° C., 24 hours
Protocol: as §1, §2

[7] = tested on: VRE FN-1; experiment: as above; assay type: cell-based, enterococci; settings: VRE FN-1, Mueller-Hinton broth, 35° C., 24 hours
Protocol: as §1, §2

[8] = target: T1, DNA gyrase of Escherichia coli (Escherichia coli, UniProt P0AES4+P0AES6); experiment: DNA gyrase inhibition (supercoiling assay kit), Exp. Ex. 1-2; assay type: biochemical; settings: E. coli DNA gyrase supercoiling, relaxed pBR322, 37° C., 30 minutes; for IC50: read-out: Gyrase inhibitory activity IC50 (converted)
T1 construct: purchased John Innes Enterprises #K0001
Protocol: (§3) As a kit for measurement of DNA gyrase of Escherichia coli, a product purchased from John Innes Enterprises (Gyrase Supercoiling assay kit #K0001) was used. Relaxed DNA was modified with gyrase into supercoiled DNA, and reaction products were separated by electrophoresis depending on the sizes of the molecular weights to examine anti-gyrase effects (IC50). One unit (1 U) of DNA gyrase and […] of relaxed pBR322 DNA were added to […] of the reaction solution, and the mixture was allowed to react at 37° C. for 30 minutes in the presence of 35 mM Tris-HCl (pH 7.5), 24 mM KCl, 4 mM MgCl2, 2 mM DTT, 1.8 mM spermidine, 1 mM ATP, 6.5% (w/v) glycerol, and 0.1 mg/ml BSA. The reactions were stopped using […] of a reaction stop solution (40% sucrose, 100 mM Tris-HCl (pH 7.5), 1 mM EDTA, 0.5 mg/ml bromophenol blue).

[9] = tested on: Methicillin-resistant S. aureus N315; experiment: In vitro infectivity assay (MIC), Exp. Ex. 2-1; assay type: cell-based, Staphylococcus aureus; settings: Staphylococcus aureus, MRSA; Gram-positive; microdilution, MIC after 24 h; read-out: MIC MRSA N315
Protocol: as §1
as §2, with “vancomycin-resistant enterococci (VRE),” for “methicillin-resistant Staphylococcus aureus (MRSA),”, “(VISA), methicillin-resistant Staphylococcus aureus (MRSA), and” for “(VISA),”, “(MSSA)” for “(MSSA), and vancomycin-resistant enterococci (VRE)”

[10] = tested on: Methicillin-resistant S. aureus COL; experiment: In vitro infectivity assay (MIC), Exp. Ex. 2-1; assay type: cell-based, Staphylococcus aureus; settings: Staphylococcus aureus, MRSA; Gram-positive; microdilution, MIC after 24 h
Protocol: as §1
as §2, with “vancomycin-resistant enterococci (VRE),” for “methicillin-resistant Staphylococcus aureus (MRSA),”, “(VISA), methicillin-resistant Staphylococcus aureus (MRSA), and” for “(VISA),”, “(MSSA)” for “(MSSA), and vancomycin-resistant enterococci (VRE)”

[11] = tested on: Methicillin-resistant S. aureus OM584; experiment: In vitro infectivity assay (MIC), Exp. Ex. 2-1; assay type: cell-based, Staphylococcus aureus; settings: Staphylococcus aureus, MRSA; Gram-positive; microdilution, MIC after 24 h; read-out: MIC MRSA OM584
Protocol: as §1
as §2, with “vancomycin-resistant enterococci (VRE),” for “methicillin-resistant Staphylococcus aureus (MRSA),”, “(VISA), methicillin-resistant Staphylococcus aureus (MRSA), and” for “(VISA),”, “(MSSA)” for “(MSSA), and vancomycin-resistant enterococci (VRE)”

[12] = tested on: Methicillin-resistant S. aureus OM481; experiment: In vitro infectivity assay (MIC), Exp. Ex. 2-1; assay type: cell-based, Staphylococcus aureus; settings: Staphylococcus aureus, MRSA; Gram-positive; microdilution, MIC after 24 h; read-out: MIC MRSA OM481
Protocol: as §1
as §2, with “vancomycin-resistant enterococci (VRE),” for “methicillin-resistant Staphylococcus aureus (MRSA),”, “(VISA), methicillin-resistant Staphylococcus aureus (MRSA), and” for “(VISA),”, “(MSSA)” for “(MSSA), and vancomycin-resistant enterococci (VRE)”

[13] = tested on: Methicillin sensitive S. aureus 209P; experiment: In vitro infectivity assay (MIC), Exp. Ex. 2-1; assay type: cell-based, Staphylococcus aureus; settings: Staphylococcus aureus, 209P / MSSA; Gram-positive; microdilution, MIC after 24 h; read-out: MIC MSSA 209P
Protocol: as §1
as §2, with “vancomycin-resistant enterococci (VRE),” for “methicillin-resistant Staphylococcus aureus (MRSA),”, “(VISA), methicillin-resistant Staphylococcus aureus (MRSA), and” for “(VISA),”, “(MSSA)” for “(MSSA), and vancomycin-resistant enterococci (VRE)”

[14] = tested on: Streptococcus pneumoniae R6; experiment: In vitro infectivity assay (MIC), Exp. Ex. 2-1; assay type: cell-based; settings: Streptococcus pneumoniae, R6, 24 h, read-out: MIC S. Pneumoniae R6
[15] = target: T2, E. coli DNA gyrase (Escherichia coli, UniProt P0AES4+P0AES6); experiment: DNA gyrase inhibition (supercoiling kit), Exp. Ex. 2-2; assay type: biochemical
T2 construct: purchased John Innes Enterprises #K0001
Protocol: as §3, with “1” for “One”

[16] = tested on: Pseodomonas aeruginosa PAOI; experiment: Antibacterial activity (MIC) against Gram-negative strains, microdilution; assay type: cell-based; settings: MIC after 24 h, read-out: MIC (Gram-nagative) PAO1
Protocol: as §1

[17] = tested on: Escherichia coli K-12; experiment: as above; assay type: cell-based; settings: K12, MIC after 24 h, read-out: MIC (Gram-nagative) K-12
Protocol: as §1

| melting point | Compound | MIC MRSA N315 [1] | MIC VISA Mu50 [2] | MIC MSS 209P [3] | MIC MRSA OM481 [4] | MIC MRSA OM58 [5] | MIC VRE NCTC 12201 [6] | MIC VRE FN-1 [7] | Gyrase inhibitory activity IC50 [8] | also measured |
| --- | --- | --- | --- | --- | --- | --- | --- | --- | --- | --- |
| 105 to 107 °C | Cc1ccc(CCC(=O)c2cc(O)c3c(=O)c(C(=O)CCc4ccc(C)cc4)c(-c4ccc(O)c(O)c4)oc3c2)cc1 [Compound 2a, 2-(3′,4′-Dihydroxyphenyl)-5-hydroxy-3,7-di-(4-methylphenylpropanoyl)-4H-chromen-4-one] |  |  |  |  |  |  |  |  |  |
| 119 to 121 °C | O=C(CCc1ccc(F)cc1)c1cc(O)c2c(=O)c(C(=O)CCc3ccc(F)cc3)c(-c3ccc(O)c(O)c3)oc2c1 [Compound 2b, 2-(3′,4′-Dihydroxyphenyl)-5-hydroxy-3,7-di-(4-fluorophenylpropanoyl)-4H-chromen-4-one] |  |  |  |  |  |  |  |  |  |
| 215 to 217 °C | O=c1c([C@@H]2O[C@H](CO)[C@H](O)[C@H](O)[C@H]2O)c(-c2ccc(O)c(O)c2)oc2cc([C@@H]3O[C@H](CO)[C@H](O)[C@H](O)[C@H]3O)cc(O)c12 [Compound 6, 2-(3′,4′-Dihydroxyphenyl)-5-hydroxy-3,7-di-β-D-galactosyl-4H-chromen-4-one] |  |  |  |  |  |  |  |  |  |
|  | O=C(CCc1ccc(O)cc1)O[C@H]1[C@H](Oc2c(-c3ccc(O)c(O)c3)oc3cc(O)cc(O)c3c2=O)O[C@H](CO)[C@@H](O)[C@@H]1OC(=O)CCc1ccc(O)cc1 [Compound 15a, 2-(3′,4′-Dihydroxy)-5,7-dihydroxy-3-β-D-(2″,3″-di-p-hydroxyphenylethylcarboxy)glucosyl-4H-chromen-4-one] | 4 µg/mL (≈ 5.26 µM) | 4 µg/mL (≈ 5.26 µM) | 4 µg/mL (≈ 5.26 µM) | 4 µg/mL (≈ 5.26 µM) | 4 µg/mL (≈ 5.26 µM) | 8 µg/mL (≈ 10.5 µM) | 8 µg/mL (≈ 10.5 µM) | 2.54 µg/mL |  |
|  | CCOc1ccc(CCC(=O)O[C@H]2[C@H](Oc3c(-c4ccc(O)c(O)c4)oc4cc(O)cc(O)c4c3=O)O[C@H](CO)[C@@H](O)[C@@H]2OC(=O)CCc2ccc(OCC)cc2)cc1 [Compound 15b, 2-(3′,4′-Dihydroxy)-5,7-dihydroxy-3-β-D-(2″,3″-di-p-ethoxyphenylethylcarboxy)glucosyl-4H-chromen-4-one] | 2 µg/mL (≈ 2.45 µM) | 4 µg/mL (≈ 4.9 µM) | 2 µg/mL (≈ 2.45 µM) | 4 µg/mL (≈ 4.9 µM) | 8 µg/mL (≈ 9.79 µM) | 8 µg/mL (≈ 9.79 µM) | 8 µg/mL (≈ 9.79 µM) | 9.23 µg/mL |  |
|  | O=C(O[C@H]1[C@H](Oc2c(-c3ccc(O)c(O)c3)oc3cc(O)cc(O)c3c2=O)O[C@H](CO)[C@@H](O)[C@@H]1OC(=O)c1ccc(F)cc1)c1ccc(F)cc1 [Compound 15g, 2-(3′,4′-Dihydroxy)-5,7-dihydroxy-3-β-D-(2″,3″-di-p-flurobenzoyloxy)glucosyl-4H-chromen-4-one] | 2 µg/mL (≈ 2.82 µM) | 2 µg/mL (≈ 2.82 µM) | 2 µg/mL (≈ 2.82 µM) | 16 µg/mL (≈ 22.6 µM) | 16 µg/mL (≈ 22.6 µM) | 8 µg/mL (≈ 11.3 µM) | 8 µg/mL (≈ 11.3 µM) | 4.25 µg/mL |  |
|  | O=c1c(O[C@@H]2O[C@H](CO)[C@@H](O)[C@H](O)[C@H]2O)c(-c2ccc(O)c(O)c2)oc2cc(O)cc(O)c12 [Compound 17, 2-(3′4′-Dihydroxy)-5,7-dihydroxy-3-β-D-glucosyl-4H-chromen-4-one] |  |  |  |  |  |  |  |  | MIC [1]: > 128 µg/mL; MIC ([2]; Staphylococcus aureus, read-out: MIC VISA Mu50): > 128 µg/mL; MIC [3]: > 128 µg/mL; MIC [4]: > 128 µg/mL; MIC [5]: > 128 µg/mL; MIC ([6]; Enterococcus, read-out: MIC VRE NCTC12201): > 128 µg/mL; MIC ([7]; Enterococcus, read-out: MIC VRE FN-1): > 128 µg/mL; IC50 [8]: > 25800 nM |
|  | CCn1cc(C(=O)O)c(=O)c2cc(F)c(N3CCNCC3)cc21 [Norfloxacin, norfloxacin, reference compound] |  |  |  |  |  |  |  |  | MIC [9]: 2 µg/mL (≈ 6.26 µM); MIC [10]: 1 µg/mL (≈ 3.13 µM); MIC [11]: 128 µg/mL (≈ 401 µM); MIC [12]: 64 µg/mL (≈ 200 µM); MIC [13]: 0.5 µg/mL (≈ 1.57 µM); MIC [14]: 0.25 µg/mL (≈ 0.783 µM); IC50 [15]: 90 nM; MIC [1]: 2 µg/mL (≈ 6.26 µM); MIC [3]: 0.5 µg/mL (≈ 1.57 µM); MIC [4]: 128 µg/mL (≈ 401 µM); MIC [5]: 64 µg/mL (≈ 200 µM); IC50 [8]: 908 nM; MIC [16]: 0.25 µg/mL (≈ 0.783 µM); MIC [17]: 0.25 µg/mL (≈ 0.783 µM) |
